The record followed here is ChEMBL document CHEMBL1201862, “PubChem BioAssay data set” (2004).

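Compound exposure: 48 hours, 5 concentrations, 96-well plates. Abbreviation: GI50, concentration required for 50% inhibition of growth.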 Active and inactive are the calls of the source. Rule as the data show it: active = GI50 up to about 1.1 µM and inactive = higher.

Among the test systems are EKVX; HCC 2998; HCT-15; HOP-62; KM12; LOX IMVI; MCF7; MOLT-4; Malme-3M; NCI-H23; NCI-H522; PC-3; RPMI-8226; SK-MEL-28; SNB-19; SW-620; U-251; UO-31; NCI-H460.
Test in all cases: NCI-60 cell line screen, 48 h

As for `COc1ccc(-c2oc3ccc(C)cc3c(=O)c2O)cc1`, the GI50 is > 100 µM (inactive) in the assay on EKVX; > 100 µM (inactive) in the assay with HCC 2998; 24.5 µM in the assay with HCT-15; > 100 µM (inactive) with HOP-62; > 100 µM (inactive) with KM12; > 100 µM (inactive) in the assay with LOX IMVI. In addition, the GI50 was > 100 µM (inactive) in the assay with MCF7; 58.6 µM (inactive) in the assay with MOLT-4; > 100 µM (inactive) in the assay on Malme-3M; > 100 µM (inactive) in the assay on NCI-H23; > 100 µM (inactive) in the assay with NCI-H522; > 100 µM (inactive) in the assay with PC-3. Moreover, the GI50 is 9.95 µM (inactive) in the assay with RPMI-8226; > 100 µM (inactive) with SK-MEL-28; 44.4 µM (inactive) in the assay with SNB-19; > 100 µM (inactive) with SW-620; 28.6 µM (inactive) in the assay with U-251; > 100 µM (inactive) in the assay on UO-31.
Regarding `CCCCCCCCCCCCNC(=O)CCC(NC(=O)c1ccc(N(C)Cc2cnc3nc(N)nc(N)c3n2)cc1)C(=O)NCCCCCCCCCCCC` (stereo not drawn), the GI50 was > 100 µM (inactive) in the assay on EKVX; 45.7 µM (inactive) in the assay on HCC 2998; above 100 µM in the assay on HCT-15; 23.6 µM (inactive) in the assay on HOP-62; 46.7 µM (inactive) in the assay with KM12; 17 µM (inactive) in the assay on LOX IMVI. Moreover, the GI50 is 30.6 µM (inactive) with MCF7; > 100 µM (inactive) in the assay on MOLT-4; 95.5 µM (inactive) with Malme-3M; 53.3 µM (inactive) in the assay with NCI-H23; > 100 µM (inactive) in the assay with NCI-H522; > 100 µM (inactive) in the assay with PC-3. The GI50 is > 100 µM (inactive) in the assay with RPMI-8226; 43.3 µM (inactive) in the assay with SK-MEL-28; 22.9 µM (inactive) in the assay on SNB-19; 29.6 µM (inactive) with SW-620; 12.3 µM (inactive) in the assay on U-251; > 100 µM (inactive) in the assay on UO-31.
In the case of `CCOC(=O)c1cc(C(O)P2(=O)N(CC(C)(C)C)[C@@H]3CCCC[C@H]3N2CC(C)(C)C)cn1C(=O)OC(C)(C)C` (stereo partly drawn), the GI50 in the assay with EKVX was 20.5 µM (inactive); in the assay on HCC 2998 it was 16.2 µM (inactive); in the assay with HCT-15 it was 17.1 µM; in the assay on HOP-62, 13.7 µM (inactive); with KM12, 14.8 µM (inactive); in the assay with LOX IMVI, 17.6 µM (inactive). The GI50 with MCF7 is 18.7 µM (inactive); in the assay on MOLT-4, 12.8 µM (inactive); in the assay on Malme-3M, 13.7 µM (inactive); in the assay with NCI-H23, 24.3 µM (inactive); in the assay on NCI-H522 it was 13.8 µM (inactive); in the assay with PC-3, 15.9 µM (inactive). Moreover, the GI50 in the assay with RPMI-8226 is 12.7 µM (inactive); in the assay with SK-MEL-28 it was 16.6 µM (inactive); in the assay with SNB-19, 19.5 µM (inactive); with SW-620 it was 16.2 µM (inactive); with U-251 it was 15.9 µM (inactive); in the assay with UO-31, 15.3 µM (inactive).
Regarding `CC1(C)C=C(/C=C2/N(S(=O)(=O)C(F)(F)F)C(/C=C3/N(S(=O)(=O)C(F)(F)F)C(C)(C#N)CC3(C)C)=CC2(C)C)N=C1/C=C1/CC(C)(C)C(=O)N1` (stereo not drawn), the GI50 in the assay on EKVX is 8.45 µM (inactive); in the assay on HCC 2998 it was 35.2 µM (inactive); with HCT-15, 6.05 µM; in the assay with HOP-62 it was 9.44 µM (inactive); in the assay on KM12 it was 5.77 µM (inactive); in the assay on LOX IMVI it was 17.9 µM (inactive). In addition, the GI50 in the assay with MCF7 was 9.29 µM (inactive); with MOLT-4, 2.84 µM (inactive); with NCI-H23, 18.8 µM (inactive); with NCI-H460, 20.8 µM (inactive); with NCI-H522, 5.96 µM (inactive); with PC-3, 5.71 µM (inactive). Besides, the GI50 was 3.93 µM (inactive) in the assay with RPMI-8226; 51.2 µM (inactive) in the assay on SK-MEL-28; 52.5 µM (inactive) with SNB-19; 6.93 µM (inactive) with SW-620; 24.7 µM (inactive) in the assay on U-251; 35.8 µM (inactive) with UO-31.
Regarding `CC1=C/C(=N\O)C(C(O)(C(F)(F)F)C(F)(F)F)C(C)(C)C1` (stereo not drawn), the GI50 in the assay on EKVX is > 10 µM (inactive); in the assay on HCC 2998 it was > 10 µM (inactive); in the assay on HCT-15 it was above 10 µM; in the assay on HOP-62, > 10 µM (inactive); in the assay on KM12, > 10 µM (inactive); in the assay with LOX IMVI it was > 10 µM (inactive). The GI50 in the assay with MCF7, in the assay with MOLT-4, in the assay with Malme-3M, in the assay on NCI-H23, in the assay with NCI-H460 and with NCI-H522 was > 10 µM (inactive) each time. Besides, the GI50 in the assay with PC-3, in the assay on SK-MEL-28, with SNB-19, in the assay on SW-620, in the assay on U-251 and with UO-31 was > 10 µM (inactive) throughout.
With `CC(=O)OC1(C)C(=O)OC/C2=C/CN(C)CCC(OC(=O)C(O)(C(C)Cl)CC1C)C2=O.c1ccccc1` (stereo not drawn), the GI50 in the assay with EKVX is > 100 µM (inactive); in the assay on HCC 2998, > 100 µM (inactive); in the assay on HCT-15, above 100 µM; in the assay with HOP-62 it was > 100 µM (inactive); in the assay on KM12 it was > 100 µM (inactive); in the assay on LOX IMVI it was > 100 µM (inactive). Further, the GI50 with MCF7, with MOLT-4, with NCI-H23, with NCI-H460, with NCI-H522 and in the assay with PC-3 was > 100 µM (inactive) in each case. For the same molecule, the GI50 in the assay with RPMI-8226, in the assay on SK-MEL-28, in the assay on SNB-19, in the assay with SW-620, in the assay with U-251 and in the assay with UO-31 was > 100 µM (inactive) in each case.
With `COc1cc([C@@H]2c3cc4c(cc3[C@@H](c3c(O)cc(O)c5c3O[C@H](c3ccc(O)c(O)c3)[C@H](OC(=O)c3cc(O)c(O)c(O)c3)C5)[C@H]3COC(=O)[C@H]23)OCO4)cc(OC)c1OC`, the GI50 in the assay on EKVX was 45.5 µM (inactive); in the assay with HCC 2998, 20.2 µM (inactive); with HCT-15 it was 18.7 µM; in the assay with HOP-62 it was 11.9 µM (inactive); in the assay on KM12, 3.88 µM (inactive); with LOX IMVI it was 5.77 µM (inactive). Further, the GI50 was 3.75 µM (inactive) in the assay on MCF7; 7.74 µM (inactive) in the assay on MOLT-4; 38.5 µM (inactive) with NCI-H23; 7.33 µM (inactive) in the assay with NCI-H460; 3.92 µM (inactive) in the assay on NCI-H522; 5.28 µM (inactive) in the assay with PC-3. The GI50 with RPMI-8226 was 5 µM (inactive); in the assay on SK-MEL-28 it was > 50.7 µM (inactive); in the assay on SNB-19, 52.7 µM (inactive); in the assay on SW-620 it was 5.87 µM (inactive); in the assay on U-251, 6.12 µM (inactive).
In the case of `C[n+]1c(-c2ccccc2)cc2/c(=C\c3ccccc3)c3ccccc3n21`, the GI50 in the assay on EKVX was 1.93 µM (inactive); in the assay with HCC 2998, 3.84 µM (inactive); with HCT-15 it was 3.47 µM; in the assay on HOP-62, 2.43 µM (inactive); in the assay with KM12, 0.738 µM (active); in the assay with LOX IMVI, 1.25 µM (inactive). Also, the GI50 in the assay with MCF7 is 1.34 µM (inactive); in the assay with MOLT-4, 1.73 µM (inactive); with Malme-3M it was 1.14 µM (inactive); in the assay on NCI-H23 it was 2.68 µM (inactive); with NCI-H522, 0.363 µM (active); in the assay with PC-3, 0.918 µM (active). For the same molecule, the GI50 with SK-MEL-28 was 0.871 µM (active); in the assay with SNB-19 it was 0.731 µM (active); in the assay with SW-620 it was 1.06 µM (active); in the assay on U-251, 0.233 µM (active); with UO-31, 2.95 µM (inactive).
On to `COc1ccc(OC)c(C2CCc3c(cnc4nc(N)nc(N)c34)C2)c1` (stereo not drawn), for which the GI50 was 1.58 µM (inactive) in the assay on EKVX; 12.3 µM (inactive) with HCC 2998; 5.42 µM in the assay with HCT-15; 12.2 µM (inactive) with HOP-62; 11.4 µM (inactive) in the assay with KM12; 1.32 µM (inactive) in the assay with LOX IMVI. Besides, the GI50 in the assay with MCF7 was 10.1 µM (inactive); with MOLT-4, 2.49 µM (inactive); in the assay with Malme-3M it was 4.83 µM (inactive); with NCI-H460 it was 2.07 µM (inactive); in the assay on NCI-H522, 6.24 µM (inactive); with PC-3, 8.2 µM (inactive). Besides, the GI50 was 13.7 µM (inactive) with SK-MEL-28, 6.92 µM (inactive) with SNB-19, 10.1 µM (inactive) in the assay on SW-620 and 4.79 µM (inactive) in the assay on U-251.
As for `CC(=O)Oc1c(C)cc(-c2cc(C)c(OC(C)=O)c(C)c2)cc1C`, the GI50 with EKVX was 37.3 µM (inactive); in the assay on HCT-15 it was 20.3 µM; in the assay with HOP-62, 45.7 µM (inactive); with KM12 it was 17.9 µM (inactive); with LOX IMVI, 17.2 µM (inactive); with MCF7, > 100 µM (inactive). The GI50 was > 100 µM (inactive) with MOLT-4; 89.3 µM (inactive) with Malme-3M; 15.4 µM (inactive) in the assay with NCI-H23; 39.9 µM (inactive) with NCI-H460; 24 µM (inactive) in the assay with NCI-H522; 14.1 µM (inactive) in the assay on PC-3. Besides, the GI50 with RPMI-8226 was > 100 µM (inactive); in the assay on SK-MEL-28, 27.6 µM (inactive); in the assay on SNB-19 it was 70.1 µM (inactive); with SW-620, 10.2 µM (inactive); with U-251 it was 15 µM (inactive); in the assay on UO-31, 26.9 µM (inactive).
With `CN(C)CCNc1ccc(NCCN(C)C)c2c1C(=O)c1ncsc1C2=O`, the GI50 was 12.3 µM (inactive) in the assay on EKVX; 15 µM (inactive) in the assay on HCC 2998; 11.4 µM in the assay with HCT-15; 13.2 µM (inactive) with HOP-62; 11.4 µM (inactive) in the assay with KM12; 8.53 µM (inactive) in the assay with LOX IMVI. In addition, the GI50 is 7.33 µM (inactive) in the assay on MCF7; 1.94 µM (inactive) in the assay on MOLT-4; 15.2 µM (inactive) in the assay with NCI-H23; 11.6 µM (inactive) in the assay with NCI-H522; 15.3 µM (inactive) in the assay on PC-3; 10.6 µM (inactive) with RPMI-8226. In addition, the GI50 was 15.3 µM (inactive) with SK-MEL-28; 18.6 µM (inactive) with SNB-19; 9.82 µM (inactive) in the assay on SW-620; 14 µM (inactive) in the assay with U-251; 15.2 µM (inactive) in the assay on UO-31.
